Test [1] concerns Peripheral Blood Mononuclear Cells (PBMCs). Description: MTT cytotoxicity in normal cells, 72 h. Particulars: Homo sapiens, PBMC, 72 h of incubation. The class given is cell-based, human. The procedure:
In order to evaluate the cytotoxic potential in normal cells, all the derivatives were tested against Peripheral Blood Mononuclear Cells (PBMCs) and the most promising compounds were again compounds 3c and 4a, which offered more selectivity against the cancer cells.
Mononuclear cells were obtained from the peripheral blood of healthy volunteers by heparin tube collection and isolated by Ficoll-Histopaque gradient centrifugation. After centrifugation, the cells were harvested, washed and resuspended in RPMI 1640 medium supplemented with 20% fetal bovine serum, 2 mM glutamine, 100 U/mL penicillin and 100 μg/mL streptomycin (Gibco™ Life Technologies, Waltham, MA, USA). The phytohemagglutinin mitogen 2% was also added into the culture medium. After that, using the neubauer chamber, the cells were counted and plated in a 96-well plate at a concentration of 10^6 cells/mL and then were maintained for overnight under incubation at 37 °C and 5% CO2 [65].
(§1) The evaluation of the cytotoxicity of the compounds was performed by the method of 3-(4,5-dimethyl-2-thiazolyl)-2,5-diphenyl-2H-tetrazolium bromide (MTT) (Sigma Aldrich Co., St. Louis, MO, USA). To perform the assay the cells were seeded in 96-well plates at the following concentrations: HL-60 and K562 (0.3 × 10^6 cells/mL); MOLT-4 and PBMC (10^6 cells/mL); NCI-H292, HT-29, HEp-2 e MCF-7 (10^5 cells/mL). Briefly, the compounds previously dissolved in DMSO (dimethylsulfoxide, Vetec, São Paulo, Brazil), were diluted in medium and added to each well at the desired concentrations. For the calculation of the concentration that inhibits 50% of cell growth (IC50) the compounds were serially diluted to obtain the final concentrations between 0.19–25 μg/mL. Doxorubicin was used as the standard in the concentration range between (0.078–10 μg/mL). After 72 h of contact of the cells with the compounds, it was added to each well 25 μL of MTT solution (5 mg/mL). Plates were left for another 3 h in incubator at 37 °C and at the end of that period the supernatant was aspirated. To perform the reading, 100 μL of DMSO was added in each well for the dissolution of the formazan crystals. The amount of formazan was measured by reading the plate at 560 nm absorbance. The IC50 was calculated from the nonlinear regression in the Prisma 7.0 software (GraphPad, San Diego, CA, USA). Each sample was tested in triplicate in three independent experiments.

The target of a further test is CDK2/CyclinA (Homo sapiens, UniProt P24941). Description: Kinase inhibition assay (ADP-Glo). Type of test: biochemical. Particulars: 10 µM ATP. The method, then:
HsCDK2/CyclinA (human, cyclin-dependent kinase-2, kindly provided by Dr. A. Echalier-Glazer, Leicester, UK) was assayed in buffer A with 0.8 µg/µL of histone H1 as substrate.
(In general: ADP-Glo first removes unused ATP, then detects ADP through luciferase.)

The next test addresses CK1δ/ε. Nature of the test: Kinase inhibition assay (ADP-Glo). Type of test: biochemical, Sus scrofa domesticus. The note with it: 10 µM ATP. The procedure:
SscCK1δ/ε (Sus scrofa domesticus, casein kinase 1δ/ε, affinity purified from porcine brain) was assayed in buffer A, with 0.022 μg/μL of the following peptide: RRKHAAIGSpAYSITA (“Sp” stands for phosphorylated serine) as CK1-specific substrate.

A further test has as its target GSK3 α/β. Description: Kinase inhibition assay (ADP-Glo). The note with it: 10 µM ATP. Type of test: biochemical, Sus scrofa domesticus. The method, then:
SscGSK-3α/β (Sus scrofa domesticus, glycogen synthase kinase-3, affinity purified from porcine brain) was assayed in buffer A with 0.010 µg/µL of GS-1 peptide, a GSK-3-selective substrate ([…]pEDEEE, “Sp” stands for phosphorylated serine).

A further test addresses T1, AURKB (Homo sapiens, UniProt Q96GD4).
T1 construct: purchased SignalChem A31-10G; host or cells: Sf9 insect cells (baculovirus)
Description: Kinase inhibition assay (ADP-Glo). The class given is biochemical. Particulars: 10 µM ATP.

For the next test, the system named is HL-60 cells. Nature of the test: DNA fragmentation assay (sub-G1, propidium iodide). The class given is cell-based, human. The note with it: 72 h. From the text:
DNA fragmentation is initiated after chromatin condensation and depends on several variables, such as the time required for the depolarization of the mitochondria and activation of the caspase cascade. In response to DNA damage the p53 protein is activated causing cell cycle arrest in G1 [57]. At flow cytometry the apoptotic cells with fragmented DNA can be identified as the sub-G1 population, seen to the left of the G1 peak. Thus, using the fluorochrome propidium iodide and the same principle of the cell cycle test, an assay was performed to identify HL-60 cells with fragmented DNA (Figure 7).
HL-60 cells (3 × 10^5) were plated in 24-well plates and treated with the compounds 3c (13 and 26 μM) and 4a (11 and 22 μM) for 72 h at 37 °C with 5% CO2. In all trials, doxorubicin was used as a positive control. After the incubation period, an aliquot of 500 μL of treated and untreated cells suspension was transferred to an Eppendorf tube and centrifuged to remove the supernatant and continue the protocol of the test. In the cell viability and annexin V assays, kits were used, ViaCount kit and guava nexin kit (Guava Technologies), respectively. The protocols performed in these tests followed the manufacturer’s instructions. For to analyze mitochondrial depolarization, rhodamine 123 fluorescent dye was used. In the assay for cell cycle analysis and DNA fragmentation propidium iodide was used. The experiments were performed on Guava EasyCyte HT (Merck-Millipore) flow cytometer, acquiring 5000 events. The data were analyzed in Guava-Soft™ software version 2.7. Three independent experiments were performed in triplicate.

Test [2] relates to K562, HL-60, MOLT-4, HEp-2, NCI-H292, HT-29 and MCF-7 tumor cell lines. Description: Cytotoxic screening against the panel of tumor cell lines (MTT). The class given is cell-based, human. Particulars: Homo sapiens; range over the seven tumor cell lines, 72 h; read-out: IC50 values across all tested cell lines. The procedure: The cytotoxicity assessment was performed against three human cancer cell lines in suspension (K562, HL-60 and MOLT-4) and four adhered (HEp-2, NCI-H292, HT-29 and MCF-7).
The cells were obtained from the Cell Bank of Rio de Janeiro and maintained in the Laboratory of Cell Culture of the Department of Antibiotics of the Federal University of Pernambuco. The lines K562 (myeloblastic leukaemia), HL-60 (promyelocytic leukemia) and MOLT-4 (lymphoblastic leukemia) were cultured in RPMI 1640 medium and the lines HEp-2 (larynx carcinoma), NCI-H292 (lung carcinoma), HT-29 (colon adenocarcinoma) and MCF-7 (breast adenocarcinoma) were cultured in DMEM medium, supplemented with 10% fetal bovine serum, 2 mM glutamine, 100 U/mL penicillin and 100 μg/mL streptomycin (Gibco™ Life Technologies), at 37 °C and 5% CO2.
as §1, with “Plates were left for another 3 h in incubator at 37 °C and at the end of that period the supernatant was aspirated.” left out, “Each sample was tested in triplicate in three independent experiments.” left out

In test [3] the target is panel of ten different protein kinases. Description: Kinase inhibition, panel of ten protein kinases. The class given is biochemical. Particulars: 3c: except towards HASPIN, CK1 and GSK3; inactive = IC50 > 10 μM; read-out: IC50 across the kinase panel. An excerpt: A panel of ten native or recombinant protein kinases was used during this study: […]

T1 sequence (Q96GD4 whole entry): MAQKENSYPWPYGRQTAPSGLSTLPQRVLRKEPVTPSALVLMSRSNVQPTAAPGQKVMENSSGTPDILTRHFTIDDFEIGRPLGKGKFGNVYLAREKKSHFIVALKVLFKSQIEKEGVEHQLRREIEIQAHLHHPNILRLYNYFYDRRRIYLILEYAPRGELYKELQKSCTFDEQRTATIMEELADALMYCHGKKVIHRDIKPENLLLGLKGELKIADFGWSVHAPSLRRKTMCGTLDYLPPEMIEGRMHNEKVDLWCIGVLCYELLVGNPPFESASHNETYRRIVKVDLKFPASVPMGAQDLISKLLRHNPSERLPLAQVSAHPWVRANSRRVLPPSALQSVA

Take `NC(=O)N/N=C/c1c(O)ccc2ccccc12` [Compound 3c, 2-Hydroxynaphthaldehyde Semicarbazone]: the IC50 (in general, the concentration at which inhibition is half-maximal) in test [1] is 82 ± 1.63 µM; against CDK2/CyclinA, 0.53 µM; on CK1δ/ε, above 10 µM; on GSK3 α/β, above 10 µM; against AURKB, 5.1 µM; in test [2], 13.1 to 56.3 µM. The IC50 in test [3] lay in the range of 0.073 to 5.1 µM. The results for the “cells with DNA fragmentation” value in the test on HL-60 cells (13 μM) and with HL-60 cells (26 μM) were 3.2% and 7.5%, respectively.
On to `Cc1ccc(C=NNC(N)=O)cc1` [Compound 3g, 4-Methylbenzaldehyde Semicarbazone], for which the IC50 in test [1] is above 100 µM; against CDK2/CyclinA, above 10 µM; at CK1δ/ε, above 10 µM; at GSK3 α/β it was above 10 µM; at AURKB, above 10 µM; in test [3] it was above 10 µM.
Turning to `CCCCN(N=Cc1ccc([N+](=O)[O-])o1)C(N)=O` [Compound 4a, 5-Nitro-2-(N^2-n-butyl)furfuraldehyde Semicarbazone], the IC50 was 51.2 ± 0.75 µM in test [1]; above 10 µM against CDK2/CyclinA; 0.76 µM at CK1δ/ε; above 10 µM against GSK3 α/β; above 10 µM at AURKB; 11.4 to 37.9 µM in test [2]. The “cells with DNA fragmentation” value in the test with HL-60 cells (11 μM) was found to be 7.0%; in the test on HL-60 cells (22 μM), 40.3%.
